Laboratory results published in ChEMBL document CHEMBL1125588, “Quinazoline antifolate thymidylate synthase inhibitors: bridge modifications and conformationally restricted analogues in the C2-methyl series” (J Med Chem, 1991).

Columns and labels:
[1] = system: L1210; test: Tested for the concentration to inhibit 50% of L1210 cell growth in culture.; type: functional, cell-based; details: Mus musculus
[2] = system: L1210; test: Tested for inhibition of L1210 cell growth in presence of dThd and expressed as % of control.; type: functional, Mus musculus; design: concentration or dose not given beside the values
[3] = target: Thymidylate synthase (Mus musculus, UniProt P07607); test: In vitro inhibition against L1210 thymidylate synthase (TS)
Sequence of Thymidylate synthase (P07607 whole entry): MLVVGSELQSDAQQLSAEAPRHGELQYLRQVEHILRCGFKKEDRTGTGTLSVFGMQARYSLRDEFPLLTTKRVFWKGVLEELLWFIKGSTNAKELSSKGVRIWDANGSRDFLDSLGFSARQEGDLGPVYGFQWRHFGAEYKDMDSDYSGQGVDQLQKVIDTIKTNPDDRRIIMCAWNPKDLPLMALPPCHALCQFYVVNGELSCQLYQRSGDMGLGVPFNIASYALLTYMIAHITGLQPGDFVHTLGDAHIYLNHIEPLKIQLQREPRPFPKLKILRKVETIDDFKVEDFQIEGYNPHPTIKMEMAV

[4] = system: L1210; test: Compound was tested for the concentration to inhibit 50% of L1210:1565 cell growth.; type: functional, cell-based; details: Mus musculus
[5] = Ratio of IC50 of L1210:1565 cells to that of IC50 of L1210 cells; type: functional

Row | Structure (SMILES) | IC50 [1] [nM] | IC50 [3] [nM] | IC50 [4] [nM] | Control [2] [%] | Ratio [5]
1 | C=CCN(Cc1ccc(C(=O)N[C@@H](CCC(=O)O)C(=O)O)s1)c1ccc2nc(C)nc(O)c2c1 | 540 | 14100 | – | 95 | –
2 | Cc1nc(O)c2cc(Cn3ccc4cc(C(=O)N[C@@H](CCC(=O)O)C(=O)O)ccc43)ccc2n1 | 36 | 3270 | – | 90 | –
3 | Cc1nc(O)c2cc(NC(C)c3ccc(C(=O)N[C@@H](CCC(=O)O)C(=O)O)cc3)ccc2n1 (stereo not given in full) | 800 | 4300 | – | 93 | –
4 | C#CCN(Cc1ccc2nc(C)nc(O)c2c1)c1ccc2c(c1)CN([C@@H](CCC(=O)O)C(=O)O)C2=O | 170 | 150 | – | 96 | –
5 | Cc1nc(O)c2cc(N(CCF)Cc3ccc(C(=O)N[C@@H](CCC(=O)O)C(=O)O)s3)ccc2n1 | 380 | 9900 | – | 95 | –
6 | Cc1nc(O)c2cc(N(CCO)Cc3ccc(C(=O)N[C@@H](CCC(=O)O)C(=O)O)s3)ccc2n1 | 6200 | 13300 | – | 91 | –
7 | CCN(Cc1ccc(C(=O)N[C@@H](CCC(=O)O)C(=O)O)s1)c1ccc2nc(C)nc(O)c2c1 | 660 | 8420 | – | 94 | –
8 | Cc1nc2ccc(CNc3ccc(C(=O)N[C@@H](CCC(=O)O)C(=O)O)s3)cc2c(=O)[nH]1 | 3000 | 24800 | – | – | –
9 | Cc1nc(=O)c2cc(CN(C)c3ccc(C(=O)N[C@@H](CCC(=O)O)C(=O)O)s3)ccc2[nH]1 [RALTITREXED] | 7 | – | 960 | – | 137
10 | Cc1nc(O)c2cc(CN(C)c3ccc4c(c3)CN([C@@H](CCC(=O)O)C(=O)O)C4=O)ccc2n1 | 1300 | 720 | – | 90 | –
11 | Cc1nc(O)c2cc(CNc3ccc4c(c3)CN([C@@H](CCC(=O)O)C(=O)O)C4=O)ccc2n1 | 3000 | 8270 | – | – | –
12 | Cc1nc(O)c2cc(NCc3ccc(C(=O)N[C@@H](CCC(=O)O)C(=O)O)cn3)ccc2n1 | 60 | 16700 | – | – | –
13 | Cc1nc(O)c2cc(NCc3ccc(C(=O)N[C@@H](CCC(=O)O)C(=O)O)cc3F)ccc2n1 | 53 | 6730 | – | 94 | –
14 | Cc1nc(O)c2cc(NCc3ccc(C(=O)N[C@@H](CCC(=O)O)C(=O)O)s3)ccc2n1 | 26 | 6980 | – | 88 | –

Second part, led by results:

Row | IC50 [1] [nM] | IC50 [3] [nM] | IC50 [4] [nM] | Structure (SMILES) | Control [2] [%] | Ratio [5]
15 | 40 | 21500 | – | Cc1nc(O)c2cc(COc3ccc(C(=O)N[C@@H](CCC(=O)O)C(=O)O)cc3)ccc2n1 | 75 | –
16 | 300 | 3820 | 2100 | Cc1nc(O)c2cc(N(C)Cc3ccc(C(=O)N[C@@H](CCC(=O)O)C(=O)O)s3)ccc2n1 | – | 7
17 | 350 | 1070 | – | Cc1nc(O)c2cc(N(C)C(C)c3ccc(C(=O)N[C@@H](CCC(=O)O)C(=O)O)cc3)ccc2n1 (stereo not given in full) | – | –
18 | 2400 | – | – | C#CCN(Cc1ccc(C(=O)N[C@@H](CCC(=O)O)C(=O)O)cc1)c1ccc2nc(C)nc(O)c2c1 | 89 | –
19 | – | – | 4200 | Cc1nc2ccc(CN(C)c3ccc(C(=O)N[C@@H](CCC(=O)O)C(=O)O)cc3)cc2c(=O)[nH]1 | – | 38
20 | 70 | 8280 | – | Cc1nc(O)c2cc(NCc3ccc(C(=O)N[C@@H](CCC(=O)O)C(=O)O)cc3)ccc2n1 | 93 | –
21 | > 20000 | 10300 | – | Cc1nc(O)c2cc(Sc3ccc(C(=O)N[C@@H](CCC(=O)O)C(=O)O)cc3)ccc2n1 | – | –
22 | 700 | 2620 | 7700 | Cc1nc(O)c2cc(N(C)Cc3ccc(C(=O)N[C@@H](CCC(=O)O)C(=O)O)cc3)ccc2n1 | 93 | 11
23 | 420 | 4660 | – | Cc1nc(O)c2cc(CSc3ccc(C(=O)N[C@@H](CCC(=O)O)C(=O)O)cc3)ccc2n1 | 99 | –
